Test results from patent US5254557A, “Compound and treatment” (Beecham Group p.l.c., priority 1988, dated 1993).

Experiments:
[1] = test system: Spontaneously hypertensive rats; test: Blood Pressure Lowering Activity (systolic blood pressure, tail cuff method); assay type: in vivo, rat
Procedure: Blood Pressure Lowering Activity
Systolic blood pressures were recorded by a modification of the tail cuff method described by I. M. Claxton, M. G. Palfreyman, R. H. Poyser, R. L. Whiting, European Journal of Pharmacology, 37, 179 (1976). A W+W BP recorder, model 8005 was used to display pulses. Prior to all measurements rats were placed in a heated environment (33.5°±0.5° C.) before transfer to a restraining cage. Each determination of blood pressure was the mean of at least 6 readings. Spontaneously hypertensive rats (ages 12-18 weeks) with systolic blood pressures>180 mmHg were considered hypertensive.

[2] = test system: guinea pig tracheal spiral preparations; test: Bronchodilation in vitro; guinea pig tracheal spiral preparations; assay type: cell-based; details: Cavia porcellus; for Emax: guinea pig tracheal spirals, relaxation relative to 10^-3 M isoprenaline, read-out: Intrinsic Activity; for IC50: relaxation as percentage of total relaxation by 10^-3 M isoprenaline, cumulative dosing 10^-8 - 2×10^-5 M, 37° C
Procedure: (a) Bronchodilation in vitro; guinea pig tracheal spiral preparations
Male guinea pigs (300-600 g) were stunned by a blow to the head and bled from the carotid artery. The trachea was exposed, dissected free of connective tissue, and transferred to oxygenated krebs solution at 37° C. Next, spirals (2 per trachea) were prepared by cutting the whole trachea spirally along its longitudinal axis and then dividing this spiral lengthwise. Each preparation was mounted, using silk thread, in a 10 ml organ bath filled with krebs solution at 37° C. and bubbled with 5% CO2 with O2. The resting tension of the preparations was set at 2 g and changes in muscle tension were monitored isometrically by means of a UFI (2 oz) force and displacement transducer (Ormed Ltd) connected to a Linseis pen recorder. All preparations were allowed to equilibrate for 60 minutes. During this equilibration period the preparations were washed by upward displacement at 15 minute intervals and, if necessary, the resting tension was readjusted to 2 g using a mechanical micromanipulator system.
Once a steady resting tension had been obtained, the preparations were dosed cumulatively with the test compound (10^-8 -2×10^-5 M), and finally a maximum relaxation achieved by addition of 10^-3 M isoprenaline. The fall in tension evoked by the test compound was expressed as a percentage of the total relaxation evoked in the presence of 10^-3 M isoprenaline. Appropriate concentration-relaxation curves were then constructed and values for potency (IC50) were obtained.
The composition of Krebs solution is: sodium chloride 118.07 mM, sodium hydrogen carbonate 26.19 mM, potassium chloride 4.68 mM, potassium orthophosphate 1.18 mM, magnesium sulphate septahydrate 1.8 mM and calcium chloride 2.52 mM; pH ca. 7.45.

CC1(C)Oc2ccc(C#N)cc2[C@@H](n2ccccc2=O)[C@@H]1O (relative stereo) [Example 1, Trans-6-Cyano-3,4-dihydro-2,2-dimethyl-4-(2(1H)-pyridon-1-yl)-2H-1-benzopyran-3-ol]
% Change in Systolic B.P. ([1]; 0.1 mg/kg p.o., 1 h post dose): -12 ± 5% | % Change in Systolic B.P. ([1]; 0.1 mg/kg p.o., 2 h post dose): -20 ± 2% | % Change in Systolic B.P. ([1]; 0.1 mg/kg p.o., 4 h post dose): -21 ± 3% | % Change in Systolic B.P. ([1]; 0.1 mg/kg p.o., 6 h post dose): -23 ± 5% | Emax [2]: 96% | IC50 [2]: 790 nM

CC1(C)Oc2ccc(C(F)(F)F)cc2[C@@H](n2ccccc2=O)[C@@H]1O (relative stereo) [Example 4, Trans-3,4-Dihydro-2,2-dimethyl-6-trifluoromethyl-4-(2(1H)-pyridon-1-yl)-2H-1-benzopyran-3-ol]
% Change in Systolic B.P. ([1]; 0.3 mg/kg p.o., 2 h post dose): -42 ± 3% | % Change in Systolic B.P. ([1]; 0.3 mg/kg p.o., 4 h post dose): -32 ± 5% | % Change in Systolic B.P. ([1]; 0.3 mg/kg p.o., 6 h post dose): -34% | Emax [2]: 95% | IC50 [2]: 540 nM

CC1(C)Oc2ccncc2[C@@H](n2ccccc2=O)[C@@H]1O (relative stereo) [Example 6]
Emax [2]: 81% | IC50 [2]: 5500 nM

CC1(C)C=C(n2ccccc2=O)c2cc(C#N)ccc2O1 [Example 2, 6-Cyano-2,2-dimethyl-4-(2(1H)-pyridon-1-yl)-2H-1-benzopyran]
% Change in Systolic B.P. ([1]; 0.03 mg/kg p.o., 2 h post dose): -41 ± 3% | % Change in Systolic B.P. ([1]; 0.03 mg/kg p.o., 4 h post dose): -38% | % Change in Systolic B.P. ([1]; 0.03 mg/kg p.o., 6 h post dose): -32 ± 3% | Emax [2]: 92% | IC50 [2]: 100 nM

CC1(C)C=C(n2ccc(=O)cc2)c2cc(C#N)ccc2O1 [Example 3, 6-Cyano-2,2-dimethyl-4-(4(1H)-pyridon-1-yl)-2H-1-benzopyran]
% Change in Systolic B.P. ([1]; 3 mg/kg p.o., 1 h post dose): -46 ± 7% | % Change in Systolic B.P. ([1]; 3 mg/kg p.o., 2 h post dose): -49 ± 3% | % Change in Systolic B.P. ([1]; 3 mg/kg p.o., 4 h post dose): -63% | % Change in Systolic B.P. ([1]; 3 mg/kg p.o., 6 h post dose): -57 ± 3% | Emax [2]: 75% | IC50 [2]: 11000 nM

CC1(C)C=C(n2ccccc2=O)c2cc(C(F)(F)F)ccc2O1 [Example 5, 2,2-Dimethyl-6-trifluoromethyl-4-(2(1H)-pyridon-1-yl)-2H-1-benzopyran]
% Change in Systolic B.P. ([1]; 0.03 mg/kg p.o., 1 h post dose): -15 ± 3% | % Change in Systolic B.P. ([1]; 0.03 mg/kg p.o., 2 h post dose): -20 ± 1% | % Change in Systolic B.P. ([1]; 0.03 mg/kg p.o., 4 h post dose): -25 ± 3% | % Change in Systolic B.P. ([1]; 0.03 mg/kg p.o., 6 h post dose): -28 ± 1% | Emax [2]: 99% | IC50 [2]: 52 nM

CC1(C)C=C(n2ccccc2=O)c2cnccc2O1 [Example 7, 2,2-Dimethyl-4-(2(1H)-pyridon-1-yl)-2H-pyrano[3,2-c]pyridine]
Emax [2]: 93% | IC50 [2]: 2400 nM
